Results as given in ChEMBL document CHEMBL3507680, “University of Dundee, Gates Library screen for HepG2 cell viability”.

Assay: Human HepG2 cell viability assay in 384 well format
Format: toxicity, cell-based
Set-up: dose 125 nL, time 70.5 hour; concentration not given beside the values
Details: HepG2 cells, read-out: Inhibition

Row | Structure (SMILES) | cytotoxicity at 70.5 h
1 | COc1cccc(CC(=O)N2CCc3ncnc(NC(C)C)c3CC2)c1 | -14%
2 | CN1C(=O)CC(c2cnn(C)c2)C12CCN(C(=O)C1CC=CC1)CC2 (stereo unspecified) | -6.39%
3 | O=C(c1ccoc1)N1CC[C@@H]2O[C@H](COCc3ccccn3)CC[C@@H]21 | -11.6%
4 | O=C(c1ccoc1)N1CCCn2cnc(COCC3CC3)c2C1 | -10.8%
5 | Cc1noc(C)c1CN1CC[C@H]2C[C@@H](c3nccs3)O[C@@H]2C1 | -14.7%
6 | Cc1cc(CN2CC[C@H]3C[C@H](C)O[C@@H]3C2)no1 | -13.8%
7 | c1ccc(CN2C[C@@H]3OCCN(CC4CCCO4)[C@@H]3C2)nc1 (stereo partly specified) | -9.93%
8 | COc1cc(N2C[C@@H]3COC[C@]3(COc3ccc(C#N)cn3)C2)ncn1 | 7.01%
9 | CN1CCN(c2ncnc3c2c(C(=O)NC2CC2)c2ccccn23)CC1 | 5.64%
10 | O=C(C1CCOC1)N1CCc2ncc(CNc3ccccn3)n2CC1 (stereo unspecified) | 0.605%
11 | O=C(c1ccc(-c2cn[nH]c2)nc1)N1CCC(N2CCOCC2)CC1 | -3.67%
12 | CCc1ncc(CN2CCOC(Cc3cccc(F)c3)C2)cn1 (stereo unspecified) | -9.07%
13 | O[C@@]1(CNCCOc2ccccc2)CCCN2CCCC[C@@H]21 | 28%
14 | CN(Cc1nc(Cc2cccc(C(F)(F)F)c2)no1)CC1CCCCO1 (stereo unspecified) | -11.5%
15 | COCCCN1C(=O)CC[C@H]2CN(c3ccc(C(N)=O)cn3)CC[C@H]21 | 4.03%
16 | COc1ccc2[nH]cc(CCNC(=O)C3CCCN(C(C)=O)C3)c2c1 (stereo unspecified) | -9.73%
17 | Cn1cnnc1SCC(=O)NC1CC(=O)N(CCc2ccccc2)C1 (stereo unspecified) | -8.79%
18 | CCN(CC)C(=O)[C@@H]1C[C@@H](NC(=O)c2ccn(C(C)(C)C)c2)CN1C | -4.81%
19 | Cc1cc(C)n(CCC(=O)N2CCCCC2c2nccs2)n1 (stereo unspecified) | 11.9%
20 | Cc1cc(CN(C)CC2(O)CCCN(CCC3CCCCC3)C2=O)no1 (stereo unspecified) | 48.7%
21 | O=C(O)c1cc(-c2cc[nH]n2)cc(S(=O)(=O)N2CCCCCC2)c1 | -4.16%
22 | Cc1nonc1CN(C)Cc1c[nH]nc1-c1ccc(F)cc1F | -14.1%
23 | CCc1ncc(C(=O)N2C[C@@H](C)O[C@@H](C)C2)cn1 | -5%
24 | Cc1ccc(C(=O)N2CCC(n3cc(CN)nn3)CC2)cc1F | -5.32%
25 | O=C(Cc1c[nH]c(=O)[nH]c1=O)N1CCC2(CCC(=O)N(C3CC3)C2)CC1 | 0.183%
26 | CN(CCCc1cnn(C)c1)C(=O)Nc1cccc(C#N)c1 | -6.3%

Row | Structure (SMILES) | cytotoxicity at 70.5 h
27 | Cn1ccnc1-c1nc2cc(S(=O)(=O)N3CCCC3)ccc2n1C | -26.2%
28 | CCc1ccc(CN(C)C(=O)C2CC(=O)N(c3cccc(O)c3)C2)nc1 (stereo unspecified) | -0.196%
29 | Cc1noc(C)c1CN(C)Cc1cnc(N2CCOCC2)nc1 | -4.31%
30 | OCC1CCCCN1Cc1cc(O)c2cccc(F)c2n1 (stereo unspecified) | 20.1%
31 | O=S1(=O)C[C@@H]2[C@H](C1)N(Cc1cc(F)cc(Cl)c1)CCN2CCO | -0.108%
32 | CCCc1nc(N2CCC(CCO)CC2)c2cnn(C)c2n1 | -2.39%
33 | O=C(NCc1nnc2n1CCCC2)c1ccc(C2CCCO2)s1 (stereo unspecified) | 18.3%
34 | O=S1(=O)C[C@@H]2[C@H](C1)N(Cc1ccoc1)CCN2Cc1ccncc1 | -5.67%
35 | CN1CCC(n2nc(Cc3cccc(Cl)c3)nc2Cn2cnnn2)CC1 | 27.5%
36 | CNc1ncc(CN(C)C(=O)CCc2cc3n(n2)CCCNC3)cn1 | -9.14%
37 | Cc1cnccc1N1CCN(C(=O)C2CC3(CCNCC3)CN2)CC1 (stereo unspecified) | -5.99%
38 | OCC1(O)CCCN(Cc2ccccc2OCCc2ccccc2)CC1 (stereo unspecified) | -5.14%
39 | CN(C)C[C@@H]1[C@H]2CN(C(=O)c3cc(=O)[nH]c4ccc(F)cc34)C[C@@H]12 | 22.8%
40 | CN(CCc1ccccc1)C(=O)c1cc(CN2CCC(O)CC2)on1 | -5.34%
41 | COCCN(C)CCN1CC2(CCN(C3CCSC3)CC2)OC1=O (stereo unspecified) | -4.49%
42 | O=C(O)C1CN(Cc2cccc(-c3ccccn3)c2)CCO1 (stereo unspecified) | -9.06%
43 | CC1(C)CNC(=O)c2nc(-c3n[nH]c(=O)[nH]3)[nH]c2C1 | -5.75%
44 | CCN(CC)C(=O)[C@@H]1C[C@@H](N)CN1C(=O)c1cc2c([nH]c1=O)CCC2 | -10.8%
45 | Cc1nnsc1C(=O)N(C)Cc1nc(-c2ccccn2)no1 | -2.75%
46 | Cn1ncc2c(N3CCS(=O)(=O)CC3)nc(-c3cccnc3)nc21 | 6.33%
47 | Cc1cccc(NC(=O)N2CCOCC(CN(C)C)C2)c1C (stereo unspecified) | -6.8%
48 | CN[C@@H](C)C(=O)N(Cc1cccc(C)c1)Cc1ccccc1OC | 14.5%
49 | COCCN(Cc1cccnc1)c1nc(C)nc2oc(C)nc12 | -5.28%
50 | C[C@@H]1CN(C(=O)c2nc3ccc(Cl)cn3c2-c2ncc[nH]2)C[C@H](C)O1 | -14.7%
51 | CCN(CC)C(=O)c1ccc(Cl)c(NC(=O)c2cc[nH]n2)c1 | 13.3%
52 | CCC[C@@H]1CN(S(=O)(=O)c2ccc(OC)c(OC)c2)C[C@H]1NC(C)=O | 6.19%

Row | Structure (SMILES) | cytotoxicity at 70.5 h
53 | COCC[C@]1(O)CCN(C(=O)CCc2cnn(C)c2)C[C@H]1C | -7.34%
54 | Cc1ccc(-c2cn[nH]c2C2CCCN(c3ncccn3)C2)cc1 (stereo unspecified) | 22.7%
55 | Cc1cc(CN(C)C(C(=O)O)c2cccc(C(F)(F)F)c2)on1 (stereo unspecified) | -7.95%
56 | COc1ccc2[nH]c3c(c2c1)CN(c1cc(NCCO)nc(N)n1)CC3 | -3.57%
57 | O=C(Nc1ccc(-c2ccccc2)cc1)N1C[C@@H]2CNC[C@]2(C(=O)O)C1 | -9.81%
58 | Cc1nc(CC(=O)N2CCCC2c2nc(-c3ccccc3)no2)cs1 (stereo unspecified) | -3.06%
59 | CCCNCc1ccc(-c2ccnc3[nH]ccc23)cc1 | 29.1%
60 | CN(Cc1ccccc1-n1cccn1)C[C@@H]1CCCN2CCCC[C@H]12 | -8.12%
61 | CCCc1nccn1-c1ccncc1 | -5.45%
62 | Cc1nn(C)c(C)c1CCC(=O)N1CCN(CCn2cncn2)CC1 | 14.9%
63 | O=C1[C@H]2CN(Cc3nccs3)C[C@H]2CN1c1ccsc1 | -1.21%
64 | CO[C@H]1CN(C(=O)c2ccccn2)[C@@H]2CCCO[C@H]12 | -14.9%
65 | Cc1ccsc1C(=O)N1C[C@@H]2CN(Cc3ccoc3)CCO[C@@H]2C1 | -1.7%
66 | CCOCC1CN(Cc2ccc(OC)cc2)Cc2nn(C)cc21 (stereo unspecified) | 25.5%
67 | Cn1cc(N2CC3(COCCN(Cc4ccsc4)C3)OCC2=O)cn1 (stereo unspecified) | 22.6%
68 | O=C1COC2(COCCN(Cc3ccsc3)C2)CN1c1ccc(F)cc1 (stereo unspecified) | -2.28%
69 | Cn1cc(C(=O)N2CC[C@@H]3[C@@H]2CCN3Cc2cccnc2)cn1 | -14.5%
70 | c1cnc(N2CCC3(CCN(Cc4ccncc4)CC3)CC2)nc1 | -15.7%
71 | COc1cc(N2C[C@@H]3COC[C@]3(COCc3cccc(C)n3)C2)ncn1 | -0.577%
72 | COc1cccc(CN2C[C@@H]3COC[C@]3(COCc3ccncc3)C2)c1 | 5.79%
73 | CCc1ccc(CN2CCN(C)c3ncccc3C2)o1 | 24.1%
74 | Cc1ccc2c(n1)N(Cc1cccnc1)CCN(C(=O)C1CCC1)C2 | -12.9%
75 | O=C(c1cccnc1)N1CCn2nnc(COc3cccnc3)c2C1 | -3.89%
76 | Cc1ccc(N2CCO[C@H]3CN(Cc4ccncc4)C[C@H]32)nn1 | -8.56%
